Measured values from patent publication US20060165823A1, “Topical delivery agents and methods for making and using therm” (priority 2003, published 2006).

Test system: hair follicles and sebaceous glands of the dorsal skin
Assay: Delivery of Nile Red fluorescent dye into hair follicles and sebaceous glands by delivery agents
Design: species or system Sprague Dawley rat; Fluorescence intensity: key to the marks not given beside the values
Settings: rat, in vivo
Description: Mixtures of Nile Red fluorescent dye, were from Sigma Chemical Co., St. […] All mixtures were filtered through a 0.2 micron Millipore filter, available from Millipore Corp., Bedford, Mass., to remove any undissolved Nile Red dye. […] Before the application of formulations, the hair of the rats was gently clipped with an electric clipper on their dorsal areas. […] The amount of Nile Red delivered is evidenced by the intensity of the orange-red fluorescence depicted in the photomicrographs. […] Orange-red fluorescence due to Nile Red dye on the skin surface (stratum corneum) was not evaluated.

## C[S+](C)[O-] [DMSO, Dimethyl Sulfoxide, reference compound]
  Fluorescence intensity: +++

## Jojoba Oil
  Fluorescence intensity: ++++
  Penetration of the skin and distribution in the pilosebaceous unit: can penetrate the skin through the opening of the hair follicle and distribute itself throughout the hair shaft and sebaceous gland
